Read-outs that look alike come from different tables or passages of the source.
How the values were obtained:
MDA-231WT cells = experiment: LC50 by CCK-8 assay, wild-type cells; type: cell-based; details: MDA-231WT (wild type), FIG. 10: after 72 h
Protocol: (§1) Dox-resistant Cell Lines. Acquired resistance to Dox was induced in wild-type triple-negative breast cancer cell line MDA-MB-231 (MDA-231WT) as described before (Aliabadi, H. M.; et al. J. Control. Release 172:219-228, 2013, which is incorporated herein by reference). Briefly, MDA-231WT cells were exposed to Dox at an initial concentration of 0.05 μg/mL for one week or three consecutive expansions (whichever came later). […] Resistance induction was confirmed via calculation of LC50 following a sigmoidal effect model explained elsewhere (Bousoik, E.; et al. Front. Oncol. 9:1070, 2019, which is incorporated herein by reference) and determination of P-glycoprotein (P-gp) expression.
(§2) The cytotoxicity of the peptide-Dox conjugate in resistant triple-negative breast cancer and uterine sarcoma cell lines (MDA-231R, MDA-231WT, and MES-SA/MX2) was evaluated by a Cell Counting 8 (CCK8) KIT. The peptide-Dox conjugate was added to the cells in triplicate with different concentrations (0-40 μM). Cells were incubated at 37° C. and 5% CO2 for 24 h. After this incubation period, 10 μL of CCK8 reagent was added to each well, and plates were incubated at the same conditions for 2 h. The absorbance of each well was determined at 450 nm using the SpectraMAX M5 microplate reader. After subtracting the signal from blank wells that contain medium without cells in the plate with CCK-8 solution added, the results were normalized to cells treated with normal saline (considered as 100%)
(§3) Efficiency in Dox-Resistant Cells. In order to compare the cytotoxic effect of free and peptide-conjugated Dox in Dox-resistant cells, MDA-231WT (as a Dox-sensitive cell line as control) and MDA-231R and MES-SA/MX2 cells as Dox-resistant cells were exposed to a wide range of Dox (or Dox-equivalent for the peptide-conjugated drug) concentrations (0.05-40 μM). Cells were seeded in 96-well plates with approximately 50% confluency and were incubated for 24 h in 37° C. and 5% CO2. […] The cell viability was determined after this incubation period using the CCK-8 assay, as explained above. […]

MDA-231R cells = experiment: LC50 by CCK-8 assay, Dox-resistant MDA-231R; type: cell-based; details: MDA-231R (Dox-resistant); FIG. 10: after 72 h
Protocol: as §1, §2, §3

MES-SA/MX2 cells = experiment: LC50 by CCK-8 assay, Dox-resistant MES-SA/MX2; type: cell-based; details: FIG. 10: after 72 h
Protocol: as §1
as §2, with “Cells were incubated at 37° C. and 5% CO2 for 24 h.” left out, “After subtracting the signal from blank wells that contain medium without cells in the plate with CCK-8 solution added, the results were normalized to cells treated with normal saline (considered as 100%)” left out
Efficiency in Dox-Resistant Cells. […] The cell viability was determined after this incubation period using the CCK-8 assay, as explained above. […]

[1] = Stability of [R5K]W7A-Dox in fetal bovine serum (HPLC); type: in vitro ADME; details: 10% FBS, 37° C.
Protocol: Stability Studies. The stability of [R5K]W7A-Dox conjugate was evaluated using phosphate-buffered saline (PBS) and fetal bovine serum (FBS). FBS was purchased from Invitrogen and ATCC. FBS (20%) was incubated with [R5K]W7A-Dox (75 μL, 1 mM in water) at 37° C. followed by intermediate mixing. An aliquot of 75 μL of the mixture was taken out at different time intervals (5 min to 24 h) and diluted with water (75 μL). The mixture was analyzed by using analytical HPLC, detecting the wavelength of 490 nm. The area under the curve (AUC) was calculated and used to determine the percentage of released Dox and the remaining prodrug at a given time.

[2] = system: uterine sarcoma cells (MES-SA/MX2)
Protocol: (§4) In Vitro Cytotoxicity Assay of Peptide-Drug Conjugates. […] In brief, CCRF-CEM cells were seeded at 50,000 cells in 0.1 mL per well in 98-well plates. In the case of other cell lines, the cells were seeded at 5,000 cells (0.1 mL per well in 96-well plates). […] Dox (5 μM) was used as a positive control, while water and cell culture medium were used as negative controls. The compounds were dissolved in water; water was used as a negative control to normalize the data. After the incubation period, MTS reagent (20 μL) was added to each well. The incubation was continued for 2 h. Cell viability was then determined by determination of the fluorescence intensity at 490 nm using a SpectraMax M2 microplate spectrophotometer. The percentage of cell viability was then calculated using the following equation: [(OD value of cells treated with the compound)−(OD value of culture medium)]/[(OD value of control cells)−(OD value of culture medium)]×100% (FIGS. 6-9).

[3] = system: gastric adenocarcinoma cells (AGS); experiment: Cytotoxicity, MTS cell viability assay, AGS
Protocol: as §4

[4] = Cytotoxicity, MTS assay, normal kidney cells; details: pig, LLC-PK1 kidney cells
Protocol: (§5) In Vitro Cytotoxicity Assay of Peptide-Drug Conjugates. The cytotoxicity of the compounds was determined by using human leukemia cell line (CCRF-CEM), human ovarian adenocarcinoma cells (SKOV-3) cells, kidney cell line (LLC-PK1), gastric adenocarcinoma cells (AGS), and heart/myocardium cells (H9C2) to evaluate the toxicity of the generated peptides according to a previously reported procedure (Rahman, A.; et al. Proc. Am. Assoc. Cancer Res. 26:2295-2299, 1985, which is incorporated herein by reference). In brief, CCRF-CEM cells were seeded at 50,000 cells in 0.1 mL per well in 98-well plates. In the case of other cell lines, the cells were seeded at 5,000 cells (0.1 mL per well in 96-well plates). The cells were seeded in medium (RPMI-1640 containing FBS (10%)), 24 h prior to the experiment. The compounds at different concentrations (10-50 μM) were added to each well in triplicate and incubated for 24 and 72 h at 37° C. in a humidified atmosphere of 5% CO2. Dox (5 μM) was used as a positive control, while water and cell culture medium were used as negative controls. The compounds were dissolved in water; water was used as a negative control to normalize the data. After the incubation period, MTS reagent (20 μL) was added to each well. The incubation was continued for 2 h. Cell viability was then determined by determination of the fluorescence intensity at 490 nm using a SpectraMax M2 microplate spectrophotometer.

LLC-PK1 kidney cells = experiment: Cytotoxicity, MTS assay, normal kidney cells
Protocol: as §5

CCRF-CEM cells = experiment: Cytotoxicity, MTS cell viability assay, CCRF-CEM
Protocol: as §4

SK-OV-3 cells = experiment: Cytotoxicity, MTS cell viability assay, SK-OV-3 (Example 1)
Protocol: as §4

[5] = Cytotoxicity, MTS assay, normal heart muscle cells (Example 1); details: rat, H9C2 heart/myocardium cells
Protocol: as §5

H9C2 cells = experiment: as above
Protocol: as §5

COc1cccc2c1C(=O)c1c(O)c3c(c(O)c1C2=O)C[C@@](O)(C(=O)COC(=O)CCCC(=O)NCCC(=O)N[C@@H](Cc1c[nH]c2ccccc12)C(=O)N[C@@H](Cc1c[nH]c2ccccc12)C(=O)N[C@@H](Cc1c[nH]c2ccccc12)C(=O)N[C@@H](Cc1c[nH]c2ccccc12)C(=O)N[C@@H](Cc1c[nH]c2ccccc12)C(=O)N[C@@H](Cc1c[nH]c2ccccc12)C(=O)N[C@@H](Cc1c[nH]c2ccccc12)C(=O)NCCCC[C@@H]1NC(=O)[C@H](CCCNC(=N)N)NC(=O)[C@H](CCCNC(=N)N)NC(=O)[C@H](CCCNC(=N)N)NC(=O)[C@H](CCCNC(=N)N)NC(=O)[C@H](CCCNC(=N)N)NC1=O)C[C@@H]3O[C@H]1C[C@H](N)[C@H](O)[C@H](C)O1 [[R5K]W7A-Dox]
CC50 (MDA-231WT cells): 560 nM | CC50 (MDA-231WT cells; listed as Conjugated Dox): 660 nM | CC50 (MDA-231R cells): 2300 nM | CC50 (MES-SA/MX2 cells): 4300 nM | Dox released ([1]; after 4 h): 55% | remaining at 24 h ([1]; bovine, 10% fetal bovine serum, after 24 h, read-out: peptide-Dox conjugate remained intact): 25% | Cell Viability (%) after 72 h ([2]; 5 μM, listed as [R5K]W7-Dox): 97 ± 2% | Cell Viability (%) after 72 h ([2]; 5 μM, listed as [R5K]W7Dox): 113 ± 1% | Cell Viability (%) after 72 h ([2]; 10 μM): 89 ± 2% | Cell Viability (%) after 72 h ([2]; 25 μM): 23 ± 4% | reduction of cell viability ([2]; 25 μM, 72 h): ~80% | cytotoxicity ([2]; 5 and 10 μM, 72 h): 0-10% | Cell Viability (%) after 24 h ([3]; 5 μM): 95 ± 0% | Cell Viability (%) after 72 h ([3]; 5 μM): 27 ± 6% | reduction of cell survival/viability ([3]; 5 μM, 72 h): 73% | Cell Viability (%) after 24 h ([3]; 10 μM): 104 ± 5% | Cell Viability (%) after 72 h ([3]; 10 μM): 13 ± 3% | Cell Viability (%) after 24 h ([3]; 25 μM): 71 ± 0% | Cell Viability (%) after 72 h ([3]; 25 μM): 10 ± 1% | Cell Viability (%) after 24 h ([3]; 50 μM): 32 ± 1% | Cell Viability (%) after 72 h ([3]; 50 μM): 11 ± 1% | cytotoxicity ([3]; 5 and 10 μM, 24 h): not significantly cytotoxic | reduction of cell viability ([3]; different concentrations, 72 h): 73-90% | viability at 24 h, 5 µM [4]: 88% | viability at 24 h, 25 µM [4]: 42% | viability at 24 h, 50 µM [4]: 33 ± 1% | viability at 72 h, 5 µM [4]: 93 ± 6% | viability at 72 h, 10 µM [4]: 95 ± 3% | viability at 72 h, 25 µM [4]: 94 ± 1% | viability at 72 h, 50 µM [4]: 33 ± 1% | cytotoxicity to normal kidney cells (LLC-PK1 kidney cells; LLC-PK1, 5-10 μM): 5-7% | cytotoxicity (LLC-PK1 kidney cells; LLC-PK1, as high as 10 μM, 24 h and 72 h): not cytotoxic | Cell Viability (%) after 24 h (LLC-PK1 kidney cells; normal kidney LLC-PK1, 5 μM): 88 ± 0% | Cell Viability (%) after 72 h (LLC-PK1 kidney cells; normal kidney LLC-PK1, 5 μM): 93 ± 6% | Cell Viability (%) after 72 h (LLC-PK1 kidney cells; normal kidney LLC-PK1, 10 μM): 95 ± 3% | Cell Viability (%) after 24 h (CCRF-CEM cells; 5 μM): 74 ± 0% | Cell Viability (%) after 72 h (CCRF-CEM cells; 5 μM): 16 ± 6% | reduction of cell survival/viability (CCRF-CEM cells; 5 μM, 72 h): 84% | Cell Viability (%) after 24 h (CCRF-CEM cells; 10 μM): 68 ± 0% | Cell Viability (%) after 72 h (CCRF-CEM cells; 10 μM): 13 ± 3% | Cell Viability (%) after 24 h (CCRF-CEM cells; 25 μM): 36 ± 0% | Cell Viability (%) after 72 h (CCRF-CEM cells; 25 μM): 15 ± 1% | reduction of cell viability (CCRF-CEM cells; 25 μM, 24 h): 64% | cytotoxicity (CCRF-CEM cells; at 5, 10, and 25 μM, 72 h): 84-87% | Cell Viability (%) after 24 h (SK-OV-3 cells; 5 μM): 87 ± 6% | Cell Viability (%) after 72 h (SK-OV-3 cells; 5 μM): 71 ± 3% | reduction of cell survival/viability (SK-OV-3 cells; 5 μM, 24 h): 19% | reduction of cell survival/viability (SK-OV-3 cells; 5 μM, 72 h): 29% | Cell Viability (%) after 24 h (SK-OV-3 cells; 10 μM): 87 ± 0% | Cell Viability (%) after 72 h (SK-OV-3 cells; 10 μM): 61 ± 6% | reduction of cell viability (SK-OV-3 cells; 10 μM, 72 h): 39% | Cell Viability (%) after 24 h (SK-OV-3 cells; 25 μM): 76 ± 1% | Cell Viability (%) after 72 h (SK-OV-3 cells; 25 μM): 52 ± 3% | reduction of cell viability / cytotoxicity (SK-OV-3 cells; 25 μM, 72 h): 48% | viability at 24 h, 5 µM [5]: 100 ± 2% | viability at 24 h, 10 µM [5]: 101% | viability at 24 h, 25 µM [5]: 68% | viability at 72 h, 10 µM [5]: 105 ± 3% | viability at 72 h, 25 µM [5]: 37 ± 1% | viability at 96 h, 5 µM [5]: 115 ± 1% | viability at 96 h, 10 µM [5]: 91% | viability at 96 h, 25 µM [5]: 39% | cytotoxicity to heart cells (H9C2 cells; H9C2, 5-10 μM): < 9% | toxicity (H9C2 cells; H9C2, 5-10 μM, 24 h, 72 h, and 96 h): did not show any significant toxicity | Cell Viability (%) after 24 h (H9C2 cells; normal heart H9C2, 5 μM): 100 ± 2% | Cell Viability (%) after 24 h (H9C2 cells; normal heart H9C2, 10 μM): 101 ± 0% | Cell Viability (%) after 72 h (H9C2 cells; normal heart H9C2, 10 μM): 105 ± 3%

— US12070505B2, “Targeted peptide-drug conjugates” (priority 2021, dated 2024)
